# In patent publication US20200345013A1, “ANTI-ADHERENT BOTANICAL COMPOSITIONS” (priority 2014, published 2020):
# How the values were obtained:
# [1] = tested on: Staphylococcus aureus CICC 10384 (ATCC 6538P); test: Screening anti-adhesion effect on porcine skin, S. aureus; format: cell-based
# Method: Preparation of Bacterial Cell Suspensions • 1. Klebsiella pneumonia CICC 21519 (ATCC 4352) and Staphylococcus aureus CICC 10384 (ATCC 6538P) were purchased from China Center of Industrial Culture Collection. • 2. Stock culture of each species was streaked onto TSA plate (OXOID, […], England) and incubated at 37° C. overnight. • 3. Single colonies were subcultured in TSB (OXOID, […], England) and incubated 37° C., 200 rpm overnight. • 4. Dilutions of overnight cultures in PBS buffer were used for the screening.
# Screening the Anti-Adhesion Effect of Botanicals/Compounds on Porcine Skin • 1. Porcine skins were aseptically cut to squares of 2×2 cm, and each was placed in a sterile Petri dish (CITOTEST LABWARE MANUFACTURING CO., LTD, Haimen, Jiangsu). • 2. Aliquots (100 μL) of botanical/compounds suspensions were applied to porcine skins, three replicates. • 3. Skins were allowed to air dry for 2 hours at ˜50% relative humidity. • 4. Inocula (100 μL) were applied to the porcine skin, and incubated at 37° C. for 2 hours. • 5. […] After incubation, colonies on plates were counted. Reduction (%) of colony forming unit (CFU) from the average counts on untreated skin was calculated. • 9. […] After incubation, plaques on plates were counted. • d. Reduction (%) of plaque forming unit (PFU) from the average counts on untreated skin was calculated.
# [2] = tested on: Klebsiella pneumonia CICC 21519 (ATCC 4352); test: Screening anti-adhesion effect on porcine skin, K. pneumoniae; format: cell-based, Klebsiella pneumoniae; details: two-hour adhesion time, Table 2
# Method: Klebsiella pneumonia CICC 21519 (ATCC 4352) and Staphylococcus aureus CICC 10384 (ATCC 6538P) were purchased from China Center of Industrial Culture Collection. • 2. […] Dilutions of overnight cultures in PBS buffer were used for the screening.
# Aliquots (100 μL) of botanical/compounds suspensions were applied to porcine skins, three replicates. • 3. Skins were allowed to air dry for 2 hours at ˜50% relative humidity. • 4. Inocula (100 μL) were applied to the porcine skin, and incubated at 37° C. for 2 hours. • 5. The skins were washed three times by applying 5 ml of PBS+0.01% Tween 80 onto the skins and then removing the liquid by pipetting. • 6. […] Microbial cells were enumerated by spread plate method. • a. […] For S. aureus and K. pneumoniae, the suspension and dilutions were plated onto TSA, and incubated at 37° C. for 1 day. • 8. After incubation, colonies on plates were counted. Reduction (%) of colony forming unit (CFU) from the average counts on untreated skin was calculated. • 9.
# C. albicans SC5314 = test: Screening anti-adhesion effect on porcine skin, C. albicans; format: cell-based, Candida albicans; details: agent 5% in water, 2 h adhesion, average +/- SD, n = 2, positive = anti-adherent
# Method: Preparation of C. albicans Cell Suspension • 1. Single cell suspension of C. albicans SC5314 was prepared as follows. Stock culture of C. albicans SC5314 was streaked onto YPD agar (YPDA) and incubated at 30° C. overnight. • 2. Single colonies were subcultured in YPD broth (YPDB) and incubated 30° C., 200 rpm overnight. • 3. Overnight culture in YPDB was subcultured in YPD broth again and incubated 30° C., 200 rpm for 48 hours. • 4. Cells were collected by centrifugation (4000×g, 10 minutes) at 4° C., washed three times with sterile water, and then resuspended in sterile water a final concentration of 10^9 CFU/mL. • 5. The suspension were stored at 4° C. at least 1 day, then subcultured into YPDB to a final concentration of 10^6 CFU/mL. • 6. After 48 hours incubation, cell suspension was examined under microscope for single cell percentage. • 7. […]
# Screening the Anti-Adhesion Effect of Botanicals/Compounds on Porcine Skin • 1. […] After incubation, colonies on plates were counted. Reduction (%) of colony forming unit (CFU) from the average counts on untreated skin was calculated. • 9. […] After incubation, plaques on plates were counted. • d. Reduction (%) of plaque forming unit (PFU) from the average counts on untreated skin was calculated.
# S. aureus = test: High Throughput Anti-adherent Test, polystyrene, one-hour adhesion, S. aureus; format: cell-based, Staphylococcus aureus; details: agent 5% in water; percentage of microbes that remain attached to treated polystyrene; low = stronger anti-adherent effect; average +/- SD, n = 2
# Excerpt: (§1) The botanical extracts listed in Table 3 were initially screened for their effect against microbial adhesion using the High Throughput Anti-adherent Test Method described below. The effect of the botanical filtrates as the percentage of control-corrected A490 is shown. For bacterial strains, the corrected A490 were all less than 20% of the untreated control. For C. albicans, the corrected A490 of the botanical filtrates were less than 70% of the untreated control. The lower percentage value indicates a stronger inhibitory effect.
# (§2) II. High Throughput Anti-Adherence Test Method
# (§3) This test method specifies the operational parameters required to grow and or prevent the formation of bacterial attachment using a high throughput screening assay. The assay device consists of a plastic lid with ninety-six (96) pegs and a corresponding receiver plate with ninety-six (96) individual wells that have a maximum 200 μL working volume. Biofilm is established on the pegs under static batch conditions (i.e., no flow of nutrients into or out of an individual well). • 1. […]
# K. pneumoniae = test: High Throughput Anti-adherent Test, polystyrene, one-hour adhesion, K. pneumoniae; format: cell-based, Klebsiella pneumoniae; details: agent 5% in water; percentage of microbes that remain attached to treated polystyrene; low = stronger anti-adherent effect; average +/- SD, n = 2
# Excerpt: as §1, §2, §3
# C. albicans = test: High Throughput Anti-adherent Test, polystyrene, one-hour adhesion, C. albicans; format: cell-based, Candida albicans; details: agent 5% in water; percentage of microbes that remain attached to treated polystyrene; low = stronger anti-adherent effect; bracketed = adherent effect; * = single measurement, else n = 2
# Excerpt: as §1, §2, §3
smiles,measurement,setting,value
Oc1ccc(C=Cc2cc(O)cc(O)c2)cc1 [Resveratrol],"Reduction of Adherent Cells (%) from Porcine Skin Control (Two-Hour Adhesion Time), S. aureus","[1]; agent 5% in water, 2 h adhesion, average +/- SD, n = 2, positive = anti-adherent",−4.2 ± 19.1%
same,"Anti-adherence on porcine skin in words, S. aureus","[1]; two-hour adhesion time, Table 2",failed to demonstrate anti-adherence
same,"Anti-adherence on porcine skin in words, K. pneumonia",[2],failed to demonstrate anti-adherence
same,"Reduction of Adherent Cells (%) from Porcine Skin Control (Two-Hour Adhesion Time), C. albicans",C. albicans SC5314,29.8 ± 11.2%
same,"Reduction of Adherent Cells (%) from Polystyrene Control (One-Hour Adhesion Time), S. aureus",S. aureus,8.0 ± 9.9%
same,"Reduction of Adherent Cells (%) from Polystyrene Control (One-Hour Adhesion Time), K. pneumoniae",K. pneumoniae,7.0 ± 2.8%
same,"Reduction of Adherent Cells (%) from Polystyrene Control (One-Hour Adhesion Time), C. albicans",C. albicans,25.5 ± 4.9%
